Reference: patent US11524960B2, “Heterobicyclic inhibitors of MAT2A and methods of use for treating cancer” (AGIOS PHARMACEUTICALS, INC., priority 2018, dated 2022)

What was measured:
MAT2A homodimer = molecular target: T1, MAT2A homodimer (Homo sapiens, UniProt P31153); assay: Biochemical assay: inhibition of MAT2A (phosphate release, PiColorLock Gold); conditions: MAT2A IC50 score; read-out: Enzyme Inhibition (Example 275)
T1 construct: inferred from Ni sepharose purification and imidazole elution; made in house; host or cells: Sf9 insect cells, recombinant baculovirus (Bac to Bac, pFASTBAC1)
How it was run: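 Phosphate formed alongside SAM was read with PiColorLock Gold and quantified against a potassium phosphate standard curve. Reactions ran 60 min at 25 °C after adding a substrate mix of 500 μM ATP and 400 μM L-methionine (mix concentrations). Compound had first been preincubated 60 min with recombinant Sf9-derived MAT2A homodimer ([…]) in pH 8.0 Tris buffer containing MgCl2, KCl, EDTA and BSA.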

[1] = test system: SAM in HCT116 human colon carcinoma cell line engineered to delete the MTAP gene (MTAP −/−); assay: Cellular assay of target engagement (SAM) by LC-MS/MS; format: cell-based; conditions: Homo sapiens, HCT-116, 72 h, IC50 score, read-out: Cell 72 h SAM Inhibition (MTAP −/−; Example 276)
How it was run: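 Intracellular SAM, the MAT2A product, was measured by quantitative LC-MS/MS against a d3-SAM standard in methanol/acetic acid extracts. Extracts came from HCT116 MTAP −/− cells exposed for 72 h at 37 °C to a ten-point, threefold dilution series of compound, added one day after seeding.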

HCT116 MTAP−/− = assay: Inhibition of cellular proliferation (Cell Titer Glo), HCT116 MTAP−/−; format: cell-based, human; conditions: Homo sapiens, HCT-116, 96 h, 4 days, IC50 score, read-out: 4 Day Relative Growth Inhibition (MTAP −/−; Example 277)
How it was run: (§1)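 Proliferation was read as ATP luminescence (Cell Titer Glo) after a 4-day, 37 °C exposure of HCT116 cells differing only in MTAP deletion status. Dosing was 10 points, 3-fold steps, added 24 h post-plating; signal minus blank, relative to 0.2% DMSO control wells, was plotted against log molar concentration.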

HCT116 MTAP+/+ = assay: Inhibition of cellular proliferation (Cell Titer Glo), HCT116 MTAP+/+; format: cell-based, human; conditions: Homo sapiens, HCT-116, 96 h, 4 days, IC50 score, read-out: 4 Day Relative Growth Inhibition (MTAP +/+; Example 277)
How it was run: as §1

T1 sequence (P31153 whole entry): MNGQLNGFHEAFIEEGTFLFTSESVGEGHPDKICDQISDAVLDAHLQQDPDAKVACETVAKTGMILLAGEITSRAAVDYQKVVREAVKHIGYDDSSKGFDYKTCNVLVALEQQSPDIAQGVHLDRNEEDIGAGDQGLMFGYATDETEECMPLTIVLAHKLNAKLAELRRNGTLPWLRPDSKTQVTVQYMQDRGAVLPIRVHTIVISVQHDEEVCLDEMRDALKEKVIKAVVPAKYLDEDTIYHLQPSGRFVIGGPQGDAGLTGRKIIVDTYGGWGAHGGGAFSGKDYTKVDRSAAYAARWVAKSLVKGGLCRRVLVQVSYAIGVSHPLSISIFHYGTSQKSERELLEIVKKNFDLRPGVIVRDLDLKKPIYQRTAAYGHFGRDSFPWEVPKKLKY

Compound | IC50 (MAT2A homodimer) [nM] | IC50 [1] [nM] | IC50 (HCT116 MTAP−/−) [nM] | IC50 (HCT116 MTAP+/+) [nM]
CCOc1cnc2cn(-c3ccc4nn(C)cc4c3)c(=O)c(-c3ccc(OC(F)F)cc3)c2n1 [Example 145-A] | < 100 | < 100 | < 100 | 100 to 10000
COc1ccc(-n2cc3cnc(NCC(F)(F)F)nc3c(-c3ccc(-c4nc[nH]n4)cc3)c2=O)cc1 [Example 206, 8-(4-(H-1,2,4-triazol-3-yl)phenyl)-6-(4-methoxyphenyl)-2-(2,2,2-trifluoroethylamino)pyrido[4,3-d]pyrimidin-7(6H)-one] | < 100 | 100 to 1000 | 100 to 10000 | 100 to 10000
COc1ccc(-n2cc3cnc(NCC(F)(F)F)nc3c(-c3ccc(C4CC4)nc3)c2=O)cc1 [Example 198, 8-(6-cyclopropylpyridin-3-yl)-6-(4-methoxyphenyl)-2-((2,2,2-trifluoroethyl)amino)pyrido[4,3-d]pyrimidin-7(6)-one] | < 100 | 100 to 1000 | 100 to 10000 | > 10000
Cn1cc2cc(-n3cc4cnc(NC5CC5)nc4c(-c4ccc(OC(F)F)cc4)c3=O)ccc2n1 [Example 172, 2-(cyclopropylamino)-8-(4-(difluoromethoxy)phenyl)-6-(2-methyl-2H-indazol-5-yl)pyrido[4,3-d]pyrimidin-7(6H)-one] | < 100 | < 100 | < 100 | > 10000
CCOc1ccc2cn(-c3ccc(OC)cc3)c(=O)c(-c3ccc(C)nc3)c2n1 [Example 114-A] | < 100 | < 100 | < 100 | 100 to 10000
Cn1cc2cc(-n3cc4ncc(OCC(F)F)nc4c(-c4ccc(Cl)cc4)c3=O)ccc2n1 [Example 146-A] | < 100 | < 100 | < 100 | 100 to 10000
CCOc1ccc2cn(-c3ccc4ncccc4c3)c(=O)c(-c3ccc(OC(F)F)cc3)c2n1 [Example 230, 8-(4-(difluoromethoxy)phenyl)-2-ethoxy-6-(quinolin-6-yl)-1,6-naphthyridin-7(6H)-one] | < 100 | < 100 | < 100 | 100 to 10000
Cn1cc2cc(-n3cc4cnc(NCC(F)(F)F)nc4c(-c4ccc(OC(F)(F)F)cc4)c3=O)ccc2n1 [Example 160, 6-(2-methyl-2H-indazol-5-yl)-2-((2,2,2-trifluoroethyl)amino)-8-(4-(trifluoromethoxy)phenyl)pyrido[4,3-d]pyrimidin-7(6H)-one] | < 100 | < 100 | < 100 | > 10000
Cn1cc2cc(-n3cc4cnc(OCC(F)(F)F)nc4c(-c4ccc(Cl)cc4)c3=O)ccc2n1 [Example 262, 8-(4-chlorophenyl)-6-(2-methyl-2H-indazol-5-yl)-2-(2,2,2-trifluoroethoxy)pyrido[4,3-d]pyrimidin-7(6H)-one] | < 100 | < 100 | 100 to 10000 | > 10000
COc1ccc(-n2cc3cnc(NCC(F)(F)F)nc3c(-c3ccc(Br)cc3)c2=O)cc1 [Example 192, 8-(4-bromophenyl)-6-(4-methoxyphenyl)-2-((2,2,2-trifluoroethyl)amino)pyrido[4,3-d]pyrimidin-7(6H)-one] | < 100 | < 100 | 100 to 10000 | > 10000
Cn1cnc2ccc(-n3cc4ccc(NCC(F)(F)F)nc4c(-c4ccc(Cl)cc4)c3=O)cc21 [Example 234, 8-(4-chlorophenyl)-6-(1-methyl-1H-benzo[d]imidazol-6-yl)-2-(2,2,2-trifluoroethylamino)-1,6-naphthyridin-7(6H)-one] | < 100 | < 100 | < 100 | > 10000
Cn1cc2cc(-n3cc4ccc(OCC(F)(F)F)nc4c(-c4ccc(OC(F)F)nc4)c3=O)ccc2n1 [Example 110-A] | < 100 | < 100 | < 100 | 100 to 10000
CCCc1ccc2cn(-c3ccc4ncn(C)c4c3)c(=O)c(-c3ccc(OC(F)F)cc3)c2n1 [Example 260, 8-(4-(difluoromethoxy)phenyl)-6-(1-methyl-1H-benzo[d]imidazol-6-yl)-2-propyl-1,6-naphthyridin-7(6H)-one] | < 100 | < 100 | < 100 | > 10000
Cn1cnc2ccc(-n3cc4ccc(OCC(F)(F)F)nc4c(-c4ccc(C5CC5)nc4)c3=O)cc21 [Example 120-A] | < 100 | < 100 | < 100 | 100 to 10000
Cn1cnc2ccc(-n3cc4ccc(OCC(F)(F)F)nc4c(-c4ccc(OC(F)F)nc4)c3=O)cc21 [Example 127-A] | < 100 | 100 to 1000 | < 100 | 100 to 10000
CCOc1ccc2cn(-c3ccc4ncn(C)c4c3)c(=O)c(-c3ccc(C(F)(F)F)nc3)c2n1 [Example 226, 2-ethoxy-6-(1-methyl-1H-benzo[d]imidazol-6-yl)-8-(6-(trifluoromethyl)pyridin-3-yl)-1,6-naphthyridin-7(6H)-one] | < 100 | < 100 | < 100 | 100 to 10000
CCOc1ccc2cn(-c3ccc4nn(C)cc4c3)c(=O)c(-c3ccc(OC(F)F)nc3)c2n1 [Example 218, 8-(6-(difluoromethoxy)pyridin-3-yl)-2-ethoxy-6-(2-methyl-2H-indazol-5-yl)-1,6-naphthyridin-7(6H)-one] | < 100 | < 100 | < 100 | 100 to 10000
Cc1ccc(-c2c(=O)n(-c3ccc4nn(C)cc4c3)cc3ccc(OCC(F)(F)F)nc23)cn1 [Example 130-A] | < 100 | < 100 | < 100 | 100 to 10000
O=c1c(-c2ccc(C3CC3)cc2)c2nc(NCC(F)(F)F)ncc2cn1-c1ccc2ncccc2c1 [Example 168, 8-(4-cyclopropylphenyl)-6-(quinolin-6-yl)-2-((2,2,2-trifluoroethyl)amino)pyrido[4,3-d]pyrimidin-7(6)-one] | < 100 | < 100 | < 100 | > 10000
CCOc1ccc2cn(-c3ccc4ncn(C)c4c3)c(=O)c(-c3ccc(OC(F)F)nc3)c2n1 [Example 229, 8-(6-(difluoromethoxy)pyridin-3-yl)-2-ethoxy-6-(1-methyl-1H-benzo[d]imidazol-6-yl)-1,6-naphthyridin-7(6H)-one] | < 100 | < 100 | < 100 | 100 to 10000
COc1ccc(-c2c(=O)n(-c3ccc(OC)cc3)cc3cnc(NCC(F)(F)F)nc23)cc1 [Example 200, 6,8-bis(4-methoxyphenyl)-2-(2,2,2-trifluoroethylamino)pyrido[4,3-d]pyrimidin-7(6H)-one] | < 100 | 100 to 1000 | 100 to 10000 | 100 to 10000
Cn1cc2cc(-n3cc4ccc(NCC(F)(F)F)nc4c(-c4ccc(C(F)(F)F)cc4)c3=O)ccc2n1 [Example 213, 6-(2-methyl-2H-indazol-5-yl)-2-((2,2,2-trifluoroethyl)amino)-8-(4-(trifluoromethyl)phenyl)-1,6-naphthyridin-7(6H)-one] | < 100 | < 100 | < 100 | > 10000
COc1ccc(-n2cc3cnc(NCC(F)F)nc3c(-c3ccc(Br)cc3)c2=O)cc1 [Example 189, 8-(4-bromophenyl)-2-((2,2-difluoroethyl)amino)-6-(4-methoxyphenyl)pyrido[4,3-d]pyrimidin-7(6H)-one] | < 100 | < 100 | 100 to 10000 | 100 to 10000
Cn1cc2cc(-n3cc4ccc(NCC(F)(F)F)nc4c(-c4ccc(C5CC5)nc4)c3=O)ccc2n1 [Example 212, 8-(6-cyclopropylpyridin-3-yl)-6-(2-methyl-2H-indazol-5-yl)-2-((2,2,2-trifluoroethyl)amino)-1,6-naphthyridin-7(6H)-one] | < 100 | < 100 | < 100 | > 10000
CCOc1ccc2cn(-c3ccc4nn(C)cc4c3)c(=O)c(-c3ccc(-c4cc[nH]n4)cc3)c2n1 [Example 223, 8-(4-(1H-pyrazol-3-yl)phenyl)-2-ethoxy-6-(2-methyl-2H-indazol-5-yl)-1,6-naphthyridin-7(6H)-one] | < 100 | 100 to 1000 | 100 to 10000 | > 10000
[2H]C([2H])([2H])Oc1ccc(-c2c(=O)n(-c3ccc4nn(C)cc4c3)cc3ccc(OCC(F)(F)F)nc23)cc1 [Example 116-A] | < 100 | < 100 | < 100 | > 10000
CCOc1ccc2cn(-c3ccc4ncccc4c3)c(=O)c(-c3ccc(OC(F)F)nc3)c2n1 [Example 232, 8-(6-(difluoromethoxy)pyridin-3-yl)-2-ethoxy-6-(quinolin-6-yl)-1,6-naphthyridin-7(6H)-one] | < 100 | < 100 | < 100 | > 10000
